Results taken from US7576076B2, “Modified pyrimidine glucocorticoid receptor modulators” (Corcept Therapeutics, Inc., priority 2004, dated 2009).

Molecular target: T1, human recombinant glucocorticoid receptor (Homo sapiens, UniProt P04150)
T1 construct: This GR was a full-length steroid hormone receptor; host or cells: recombinant baculovirus-infected insect cells
T1 sequence (P04150 1-777): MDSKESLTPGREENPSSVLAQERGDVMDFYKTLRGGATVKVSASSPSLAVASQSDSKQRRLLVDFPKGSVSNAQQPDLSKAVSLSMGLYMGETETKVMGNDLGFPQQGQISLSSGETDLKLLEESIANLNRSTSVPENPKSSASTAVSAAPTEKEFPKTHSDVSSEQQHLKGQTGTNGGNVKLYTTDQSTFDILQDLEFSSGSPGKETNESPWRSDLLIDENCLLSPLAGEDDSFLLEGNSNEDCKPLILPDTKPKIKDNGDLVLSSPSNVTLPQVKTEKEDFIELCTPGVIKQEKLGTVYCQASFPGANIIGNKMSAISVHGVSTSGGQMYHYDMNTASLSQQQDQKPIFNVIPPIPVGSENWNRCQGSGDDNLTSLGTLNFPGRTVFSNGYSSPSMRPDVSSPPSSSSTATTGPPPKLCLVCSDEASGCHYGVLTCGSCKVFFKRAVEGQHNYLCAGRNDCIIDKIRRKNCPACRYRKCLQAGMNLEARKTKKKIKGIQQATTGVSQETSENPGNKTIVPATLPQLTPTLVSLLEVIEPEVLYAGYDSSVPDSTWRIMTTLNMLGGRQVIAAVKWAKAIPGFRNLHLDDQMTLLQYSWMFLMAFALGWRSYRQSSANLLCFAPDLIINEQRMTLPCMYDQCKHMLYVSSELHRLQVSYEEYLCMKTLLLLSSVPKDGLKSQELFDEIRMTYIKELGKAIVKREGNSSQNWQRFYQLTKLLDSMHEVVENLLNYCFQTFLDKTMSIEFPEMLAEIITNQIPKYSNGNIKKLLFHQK
Experiment: Glucocorticoid receptor binding displacement assay with 3H-dexamethasone
Settings: Ki
Description: The source of the receptor was recombinant baculovirus-infected insect cells. This GR was a full-length steroid hormone receptor likely to be associated with heat-shock and other endogenous proteins.
For the Primary Screen, test compounds were tested at 1 μM in duplicate. These compounds were diluted from 10 mM stock in 100% DMSO. After dilution to 100 μM, 5 μl were added to 245 μl assay buffer to obtained 2 μM compound and 2% DMSO.
For the IC50 determinations, test compounds were tested at 6 concentrations in duplicate (concentration range depends on % inhibition binding that was obtained in the Primary Screen,). Test compounds were diluted from 10 mM stock in 100% DMSO. The tested solutions were prepared at 2×final assay concentration in 2% DMSO/assay buffer.
All reagents and the assay plate were kept on ice during the addition of reagents. […] After the additions, the incubation mixture was mixed and incubated for 2.5 hrs at 4° C.
After 2.5 hrs incubation, unbound counts were removed with dextran coated charcoal (DCC) as follows: 25 μl of DCC solution (10% DCC in assay buffer) was added to all wells and mixed (total volume 225 μl). The plate was centrifuged at 4000 rpm for 10 minutes at 4° C. 75 μl of the supernatants (i.e. ⅓ of total volume) was carefully pipetted into an optiplate. 200 μl of scintillation cocktail were added (Microscint-40, Packard Bioscience. B.V.). The plate was vigorously shaken for approx. 10 minutes and counted on Topcount.
The IC50 values were converted to Ki (the inhibition constant) using the Cheng-Prusoff equation.
Reagents: Assay buffer: 10 mM potassium phosphate buffer pH 7.6 containing 5 mM DTT, 10 mM sodium molybdate, 100 μM EDTA and 0.1% BSA.

`Cn1c(=O)[nH]c(N2CCC(Oc3ccccc3)CC2)c(Cc2ccccc2)c1=O` [Compound 37] showed a Ki of 10 to 100 nM.

Same assay, conditions: displacement of 2.5 nM 3H-dexamethasone; IC50 converted to Ki by Cheng-Prusoff; read-out: Ki

`Cn1c(=O)[nH]c(N2CCC(O)CC2)c(Cc2cccc(C(F)(F)F)c2)c1=O` [Compound 1] and `CCOC(=O)N1CCN(c2[nH]c(=O)n(C)c(=O)c2Cc2cccc(C(F)(F)F)c2)CC1` [Compound 2] cannot be ordered by Ki: greater than 100 nM for the first, greater than 100 nM for the second.

First: Cn1c(=O)[nH]c(N2CCC(Cc3ccccc3)CC2)c(Cc2ccccc2Br)c1=O [Compound 3]
Second: Cn1c(=O)[nH]c(N2CCC(Cc3ccccc3)CC2)c(Cc2ccccc2)c1=O [Compound 5]
The Ki of the first is higher: greater than 100 nM for the first, 10 to 100 nM for the second. The second binds more tightly here.

`Cn1c(=O)[nH]c(N2CCC(Cc3ccccc3)CC2)c(Cc2ccccc2Br)c1=O` [Compound 4] and `Cn1c(=O)[nH]c(N2CCC(Cc3ccccc3)CC2)c(Cc2ccc(Br)cc2)c1=O` [Compound 7] fall in the same range of Ki: 10 to 100 nM for the first, 10 to 100 nM for the second.

First: Cn1c(=O)[nH]c(N2CCC(Cc3ccccc3)CC2)c(Cc2ccc(F)cc2F)c1=O [Compound 6]
Second: Cn1c(=O)[nH]c(N2CCC(Cc3ccccc3)CC2)c(Cc2ccc(F)cc2Cl)c1=O [Compound 8]
The Ki of the first is lower: 10 to 100 nM for the first, greater than 100 nM for the second.

First: Cn1c(=O)[nH]c(N2CCC(Cc3ccccc3)CC2)c(Cc2ccc(C#N)cc2)c1=O [Compound 9]
Second: Cc1ccc(Cc2c(N3CCC(Cc4ccccc4)CC3)[nH]c(=O)n(C)c2=O)cc1 [Compound 10]
The Ki of the first is higher: greater than 100 nM for the first, 10 to 100 nM for the second.

`CC(C)=CCc1c(N2CCC(Cc3ccccc3)CC2)[nH]c(=O)n(C)c1=O` [Compound 11] and `Cn1c(=O)[nH]c(N2CCC(Cc3ccccc3)CC2)c(Cc2ccc(C(C)(C)C)cc2)c1=O` [Compound 13] cannot be ordered by Ki: greater than 100 nM for the first, greater than 100 nM for the second.

`Cn1c(=O)[nH]c(N2CCC(Cc3ccccc3)CC2)c(Cc2ccccc2-c2ccccc2)c1=O` [Compound 14] and `O=c1[nH]c(N2CCC(Cc3ccccc3)CC2)c(Cc2cccc(Cl)c2)c(=O)n1-c1ccccc1` [Compound 25] cannot be ordered by Ki: greater than 100 nM for the first, greater than 100 nM for the second.

`Cn1c(=O)[nH]c(N2CCN(Cc3ccccc3)CC2)c(Cc2ccccc2)c1=O` [Compound 16] and `O=c1[nH]c(N2CCN(Cc3ccccc3)CC2)c(Cc2ccccc2)c(=O)[nH]1` [Compound 22] cannot be ordered by Ki: greater than 100 nM for the first, greater than 100 nM for the second.

Compared with `Cn1c(=O)[nH]c(N2CCC(c3ccccc3)CC2)c(Cc2ccccc2)c1=O` [Compound 17], `Cn1c(=O)[nH]c(N2CCC(c3ccccc3)CC2)c(CCc2ccccc2)c1=O` [Compound 28] is higher in Ki: 10 to 100 nM for the first, greater than 100 nM for the second. The first binds more tightly here.

Compared with `O=c1[nH]c(N2CCC(Cc3ccccc3)CC2)c(Cc2ccccc2)c(=O)[nH]1` [Compound 18], `O=c1[nH]c(N2CCC(c3ccccc3)CC2)c(Cc2ccccc2)c(=O)[nH]1` [Compound 31] is lower in Ki: 10 to 100 nM for the first, less than 10 nM for the second. The second binds more tightly here.

`Cn1c(=O)[nH]c(N2CCC(O)(Cc3ccccc3)CC2)c(Cc2ccccc2)c1=O` [Compound 19] and `Cn1c(=O)[nH]c(N2CCN(C(c3ccccc3)c3ccccc3)CC2)c(Cc2ccccc2)c1=O` [Compound 21] cannot be ordered by Ki: greater than 100 nM for the first, greater than 100 nM for the second.

First: O=c1[nH]c(N2CCC(Cc3ccccc3)CC2)c(Cc2cccc(Cl)c2)c(=O)n1Cc1ccccc1 [Compound 24]
Second: O=c1[nH]c(N2CCC(c3ccccc3)CC2)c(Cc2cccc(Cl)c2)c(=O)n1Cc1ccccc1 [Compound 27]
The Ki of the first is lower: 10 to 100 nM for the first, greater than 100 nM for the second. The first binds more tightly here.

`CC(C)Cn1c(=O)[nH]c(N2CCC(Cc3ccccc3)CC2)c(Cc2cccc(Cl)c2)c1=O` [Compound 26] and `CCn1c(=O)[nH]c(N2CCC(Cc3ccccc3)CC2)c(Cc2cccc(Cl)c2)c1=O` [Compound 29] cannot be ordered by Ki: greater than 100 nM for the first, greater than 100 nM for the second.

Compared with `CCn1c(=O)[nH]c(N2CCC(c3ccccc3)CC2)c(Cc2cccc(Cl)c2)c1=O` [Compound 30], `O=c1[nH]c(N2CCC(c3ccccc3)CC2)c(Cc2cccc(Cl)c2)c(=O)[nH]1` [Compound 35] is lower in Ki: greater than 100 nM for the first, less than 10 nM for the second. The second binds more tightly here.

Compared with `O=c1[nH]c(N2CCC(c3ccccc3)CC2)c(Cc2ccccc2Cl)c(=O)[nH]1` [Compound 33], `Cn1c(=O)[nH]c(N2CCC(c3ccccc3)CC2)c(Cc2ccccc2Cl)c1=O` [Compound 34] is higher in Ki: less than 10 nM for the first, 10 to 100 nM for the second.

`O=c1[nH]c(N2CCC(c3ccccc3)CC2)c(Cc2ccc(Cl)cc2)c(=O)[nH]1` [Compound 36] and `O=c1[nH]c(N2CCC(c3ccccc3)CC2)c(Cc2cccc(Br)c2)c(=O)[nH]1` [Compound 38] fall in the same range of Ki: 10 to 100 nM for the first, 10 to 100 nM for the second.

First: COc1cccc(C2CCN(c3[nH]c(=O)[nH]c(=O)c3Cc3ccccc3)CC2)c1 [Compound 39]
Second: COc1ccc(C2CCN(c3[nH]c(=O)[nH]c(=O)c3Cc3ccccc3)CC2)cc1 [Compound 40]
The Ki of the first is lower: less than 10 nM for the first, 10 to 100 nM for the second. The first binds more tightly here.

Compared with `COc1ccccc1C1CCN(c2[nH]c(=O)[nH]c(=O)c2Cc2ccccc2)CC1` [Compound 41], `O=c1[nH]c(N2CCC(c3c[nH]c4ccccc34)CC2)c(Cc2ccccc2)c(=O)[nH]1` [Compound 42] is higher in Ki: less than 10 nM for the first, 10 to 100 nM for the second.

`CC(=O)Nc1ccc(C2CCN(c3[nH]c(=O)[nH]c(=O)c3Cc3ccccc3)CC2)cc1` [Compound 46] and `N#Cc1cccc(Cc2c(N3CCC(c4ccccc4)CC3)[nH]c(=O)[nH]c2=O)c1` [Compound 48] fall in the same range of Ki: 10 to 100 nM for the first, 10 to 100 nM for the second.

Molecular target: T2, endogenous glucocorticoid receptors in SW1353/MMTV-5 cells (Homo sapiens, UniProt P04150)
T2 construct: contains endogenous glucocorticoid receptors; endogenous in cells; host or cells: SW1353/MMTV-5 (human chondrosarcoma, stably transfected with the pMAMneo-Luc reporter only)
T2 sequence (P04150 1-777): T1 sequence (P04150 1-777)
Experiment: GR functional assay using SW1353/MMTV-5 cells (luciferase reporter)
Format: cell-based
Settings: not given
Description: SW1353/MMTV-5 is an adherent human chondrosarcoma cell line that contains endogenous glucocorticoid receptors. It was transfected with a plasmid (pMAMneo-Luc) encoding firefly luciferase located behind a glucocorticoid-responsive element (GRE) derived from a viral promoter (long terminal repeat of mouse mammary tumor virus). A stable cell line SW1353/MMTV-5 was selected with geneticin, which was required to maintain this plasmid.
SW1353/MMTV-5 cells were distributed in 96-well plates and incubated in medium (without geneticin) for 24 hrs (in the absence of CO2).

`O=c1[nH]c(N2CCC(c3ccccc3)CC2)c(Cc2ccccc2)c(=O)[nH]1` [Compound 31] and `O=c1[nH]c(N2CCC(c3ccccc3)CC2)c(Cc2ccccc2Cl)c(=O)[nH]1` [Compound 33] fall in the same range of Ki: 10 to 100 nM for the first, 10 to 100 nM for the second.

First: Cn1c(=O)[nH]c(N2CCC(c3ccccc3)CC2)c(Cc2ccccc2Cl)c1=O [Compound 34]
Second: O=c1[nH]c(N2CCC(c3ccccc3)CC2)c(Cc2cccc(Cl)c2)c(=O)[nH]1 [Compound 35]
The Ki of the first is higher: greater than 100 nM for the first, 10 to 100 nM for the second.

First: O=c1[nH]c(N2CCC(c3ccccc3)CC2)c(Cc2ccc(Cl)cc2)c(=O)[nH]1 [Compound 36]
Second: O=c1[nH]c(N2CCC(c3ccccc3)CC2)c(Cc2cccc(Br)c2)c(=O)[nH]1 [Compound 38]
The Ki of the first is higher: greater than 100 nM for the first, 10 to 100 nM for the second. The second binds more tightly here.
